Experimental findings from paper PMC11406233 (Proceedings of the National Academy of Sciences of the …, 2024) are described below.

The term EC50 denotes the concentration that produces a half-maximal response.

The subject of assay [1] is SCoV2^WK521WT. As to the kind of experiment: microbe, parasite or virus in culture. The assay is classed as cell-based. Conditions: for EC50: Severe acute respiratory syndrome coronavirus 2, read-out: EC50 from cell-based assay.
In assay [2] the test system is SCoV2^WK521WT. Description: microbe, parasite or virus in culture. Particulars: Severe acute respiratory syndrome coronavirus 2, VeroE6/TMPRSS2, read-out: EC50 from cell-based assay.

Where two headings read alike, the source gives them in different places.

In the case of `COc1cccc2[nH]c(C(=O)N[C@@H](CC(C)C)C(=O)N[C@@H](C[C@@H]3CCNC3=O)C(=O)c3nc4ccccc4s3)cc12` [5h], the EC50 in assay [1] stood at 0.2 ± 0.09 µM; in assay [2], 4.1 µM.

In the case of `CC(C)(C)[C@H](NC(=O)C(F)(F)F)C(=O)N1C[C@H]2[C@@H]([C@H]1C(=O)N[C@@H](C[C@@H]1CCNC1=O)C(=O)c1nc3c(F)cccc3s1)C2(C)C` [TKB245], in assay [1], the “Difference in the EC50 values of NIR and TKB245” value turned out to be 34.7 fold; the EC50 came out at 0.0015 µM. In addition, the EC50 in assay [2] stood at 0.33 µM.

As for `CC(C)(C)[C@H](NC(=O)C(F)(F)F)C(=O)N1C[C@H]2[C@@H]([C@H]1C(=O)N[C@H](C#N)C[C@@H]1CCNC1=O)C2(C)C` [nirmatrelvir, reference compound], the EC50 in assay [1] amounted to 0.052 µM; in assay [2] it was 1.5 µM.
